This note sets out measurements from patent US20260250290A1 (BRISTOL-MYERS SQUIBB COMPANY, priority 2023, published 2026).

Structures can show the parent of a compound that is named as a salt.

The target in this assay is T1, full length SGK1 (Homo sapiens, UniProt O00141).
T1 construct: 125 μM full length SGK1 (Life Technologies Part #PR7358A); purchased Life Technologies PR7358A
T1 sequence (O00141 1-431): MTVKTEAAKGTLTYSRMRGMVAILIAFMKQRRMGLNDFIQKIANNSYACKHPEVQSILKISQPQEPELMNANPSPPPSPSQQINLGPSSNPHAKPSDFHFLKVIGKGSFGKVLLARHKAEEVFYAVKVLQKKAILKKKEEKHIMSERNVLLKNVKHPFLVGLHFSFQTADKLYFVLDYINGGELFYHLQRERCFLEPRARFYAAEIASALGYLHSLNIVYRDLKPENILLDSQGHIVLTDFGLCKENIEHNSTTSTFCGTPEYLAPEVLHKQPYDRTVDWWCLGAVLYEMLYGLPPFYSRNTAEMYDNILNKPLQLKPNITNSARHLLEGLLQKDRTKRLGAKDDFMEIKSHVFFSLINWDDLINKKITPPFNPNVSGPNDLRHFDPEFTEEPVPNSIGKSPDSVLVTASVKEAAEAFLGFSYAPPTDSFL
The assay is described as follows: SGK1 inhibition Assay A (Caliper LabChip electrophoretic separation of fluorescent peptide substrate and phosphorylated product). Type of assay: biochemical. The following applies: Assay A; 20 μM ATP, 40 min incubation; read-out: SGK1 IC50.
On to `COc1cscc1C(=O)N[C@@H]1CCCN(c2cc(C3=CCN(C(C)=O)C3)n3ncnc(N)c23)C1` [Example 721, (R)-N-(1-(7-(1-acetyl-2,5-dihydro-1H-pyrrol-3-yl)-4-aminopyrrolo[2,1-f][1,2,4]triazin-5-yl)piperidin-3-yl)-4-methoxythiophene-3-carboxamide], for which the IC50 came to 10 nM.
With `Nc1ncnn2c(-c3ccnc(F)c3)cc(N3CCC[C@@H](NC(=O)c4ccsc4)C3)c12` [Example 155, (R)-N-(1-(4-amino-7-(2-fluoropyridin-4-yl)pyrrolo[2,1-f][1,2,4]triazin-5-yl)piperidin-3-yl)thiophone-3-carboxamide] the figure was 2 nM; with `COCCOc1cc(Cl)sc1C(=O)N[C@@H]1CCCN(c2cc(C3=CCN(S(C)(=O)=O)C3)n3ncnc(N)c23)C1` [Example 140, (R)—N-(1-(4-amino-7-(1-(methylsulfonyl)-2,5-dihydro-1H-pyrrol-3-yl)pyrrolo[2,1-f][1,2,4]triazin-5-yl)piperidin-3-yl)-5-chloro-3-(2-methoxyethoxy)thiophene-2-carboxamide], 6 nM.
Regarding `CN(C)CCOc1cc(Cl)sc1C(=O)N[C@@H]1CCCN(c2cc(-c3ccc(-n4cnc(C#N)n4)nc3)n3ncnc(N)c23)C1` [Example 191, (R)-N-(1-(4-amino-7-(6-(3-cyano-1H-1,2,4-triazol-1-yl)pyridin-3-yl)pyrrolo[2,1-f][1,2,4]triazin-5-yl)piperidin-3-yl)-5-chloro-3-(2-(dimethylamino)ethoxy) thiophene-2-carboxamide], the IC50 turned out to be 6 nM.
The same measure for `CCOc1ccsc1C(=O)N[C@@H]1CCCN(c2cc(-c3ccc(S(C)(=O)=O)cc3)n3ncnc(N)c23)C1` [Example 99, (R)-N-(1-(4-amino-7-(4-(methylsulfonyl)phenyl)pyrrolo[2,1-f][1,2,4]triazin-5-yl)piperidin-3-yl)-3-ethoxythiophene-2-carboxamide]: 7 nM; for `CC(=O)N1CC=C(c2cc(N3CCC[C@@H](NC(=O)c4sc(C(F)F)cc4C4CCN(C(C)C)CC4)C3)c3c(N)ncnn23)C1` [Example 394, (R)-N-(1-(7-(1-acetyl-2,5-dihydro-1H-pyrrol-3-yl)-4-aminopyrrolo[2,1-f][1,2,4]triazin-5-yl)piperidin-3-yl)-5-(difluoromethyl)-3-(1-isopropylpiperidin-4-yl)thiophene-2-]: 249 nM.
In the case of `COC(=O)N1CC=C(c2cc(N3CCC[C@@H](NC(=O)c4sc(Cl)cc4OC4CCNCC4)C3)c3c(N)ncnn23)C1` [Example 561], the IC50 worked out at 2 nM.
The same measure for `N#Cc1ccc(-c2cc(N3CCC[C@@H](NC(=O)c4sc(Cl)cc4OCC(=O)N4CCCC4)C3)c3c(N)ncnn23)cn1` [Example 420, (R)-N-(1-(4-amino-7-(6-cyanopyridin-3-yl)pyrrolo[2,1-f][1,2,4]triazin-5-yl)piperidin-3-yl)-5-chloro-3-(2-oxo-2-(pyrrolidin-1-yl)ethoxy) thiophene-2-carboxamide]: 13 nM; for `COC(=O)N1CC=C(c2cc(N3CCCC(NC(=O)c4sc(Cl)cc4OC4CCNC(C)(C)C4)C3)c3c(N)ncnn23)C1` (single isomer, unassigned) [Example 629]: 5 nM.
With `CC(=O)N1CC=C(c2cc(N3CCC[C@@H](NC(=O)c4sc5ccc(C#N)cc5c4OC4CCN(C(=O)OC(C)(C)C)CC4)C3)c3c(N)ncnn23)C1` [Example 676, tert-butyl (R)-4-((2-((1-(7-(1-acetyl-2,5-dihydro-1H-pyrrol-3-yl)-4-aminopyrrolo[2,1-f][1,2,4]triazin-5-yl)piperidin-3-yl)carbamoyl)-5-cyanobenzo[b]thiophen-3-yl)oxy)piperidine-1-carboxylate] the figure was 117 nM.
In the case of `CS(=O)(=O)c1ccc(-c2cc(N3CCC[C@@H](NC(=O)c4ccns4)C3)c3c(N)ncnn23)cc1` [Example 41, (R)-N-(1-(4-amino-7-(4-(methylsulfonyl)phenyl)pyrrolo[2,1-f][1,2,4]triazin-5-yl)piperidin-3-yl)isothiazole-5-carboxamide, TFA], the IC50 was determined as 5 nM.

In general, IC50 refers to the point on the concentration scale where inhibition reaches its midpoint.
